Reference: US8198322B2, “Apoptotic and anti-tumor activities of metallo-salens” (Board of Regents, The University of Texas System, priority 2008, dated 2012)
Values joined by “and” are separate entries in the source; they are usually repeats but may differ in a detail not shown here. Equal values may be shown once. “Also recorded” adds a separate entry of the source. Read-outs that look alike come from different tables or passages of the source.

What was measured:
MCF-7 cells [1] = assay: Cytotoxicity assay (IC50 measurement, MTT); format: cell-based, human; conditions: MCF-7, 96 hrs
Procedure: Cytotoxicity assay (IC50 measurement): The cytotoxicity of Fe(III)-salen and its derivatives was determined by using MTT assay as described previously^42. In brief, approximately 10,000 MCF-7 cells were seeded into each well of a 96 well micro titer plate and incubated 24 hrs in presence of 150 μL DMEM. An additional 50 μL DMEM containing required amount of each metallo-salen to obtain 0.05 to 60 μM final concentration (in 200 μL final volume) in 8 replicate wells were added. Control wells were treated with equivalent amount of DMSO. After 96 hrs of incubation, 20 μL of MTT (5 mg/mL) was added into each well and cell viability was assayed by measuring the formazan absorption at 560 nm as described above. The absorbance (at 560 nm) values were plotted against concentration of metallo-salens to determine the IC50. The studies were repeated twice with 8 replicates each time.
The concentration of the metal-complexes at which the conversion of MTT to formazan by viable cells is reduced by 50% compared to control cells is defined as the IC50. The percent of cell survival relative to the control cells were plotted as a function of concentration of the metallo-salen derivatives.

MCF-7 cells [2] = assay: Cell viability assay (MTT, DIC microscopy) at 20 μM; format: cell-based, human; set-up: key to Summary of cell viability activities (active/inactive): Y and N indicates active and inactive compounds respectively; Y and N indicates active and inactive compounds respectively; conditions: for Summary of cell viability activities (active/inactive): MCF-7 cells, 20 μM, 24-96 hrs, MTT; for effect on cell viability (in words): MCF-7, 20 μM, up to 96 hrs
Procedure: (A-F): MCF-7 cells were treated with 20 μM metallo-salens and incubated for varying time periods (24-96 hrs). Viable cells were quantified using MTT assay. The percent viable cells (relative to control, treated with equivalent amount of DMSO) were plotted as a function of time for each compound. This experiment was repeated twice with 8 replicate treatments each time. Bars indicates standard errors of mean (SEM). Curves 1-42 in FIGS. 2A-2F, represent the viability curves for compounds 1-42 respectively. (A′-F′) DIC images of the corresponding MCF-7 cells that were treated with DMSO (control panel), or with 20 μM Mn(III)- and Fe(III)-salen complexes for 72 hrs showing the visual effects on cellular morphology and growth/death.
Cell viability assay: Approximately 10,000 MCF-7 cells were seeded into each well of a 96 well micro titer plate and incubated 24 hrs in presence of 150 μL DMEM. An additional 50 μL DMEM containing required amount of each metallo-salen to obtain 20 μM final concentrations (in 200 μL final volume) in 8 replicate wells were added. Control wells were treated with equivalent amount of dimethylsulfoxide (DMSO). The viability of the cells was assayed at 24, 48, 72 and 96 hrs post treatment by using both microscopic observation and MTT assay. For microscopic observation cells were stained with trypan blue for at least 10 minute and observed under Differential Interference Contrast (DIC) setting of a fluorescence microscope (Nikon Eclipse TE2000-U, Japan). The MTT assay was performed as described previously^42. In brief, 20 μL MTT (5 mg/ml in PBS) was added into each wells and incubated for 2 hrs under normal growth condition to allow the viable cell to convert MTT to formazan. Then the media was discarded and formazan crystals were dissolved by adding 100 μL of DMSO and incubating 2 hrs with continuous shaking. The absorbance of the lysates were directly measured at 560 nm using a micro plate reader (Fluostar-omega, BMG Labtech). The absorbance values (which are proportional to the viable cell) are plotted as a function of time. The studies were repeated twice with 8 replicates each time.
The inventors studied the effect of Mn(III)-salen and Fe(III)-salen derivatives on the cell viability of cultured breast cancer cells MCF-7 in order to investigate the biochemical effects of the derivatives. The cells were incubated alone or with 20 μM of each of the metallo-salen derivatives separately (compounds 1-45) for varying time periods (0-96 hrs). The viable cells were quantified using MTT assay and the percent of cell survived (relative to the control untreated cells) were plotted against time (FIGS. 2A-2F).

[3] = read-out: IC50 values for different complexes in MCF-7 cells
[4] = read-out: IC50 toward MCF-7 cells

| Compound | IC50 (MCF-7 cells [1]; [3]) | Summary of cell viability activities (active/inactive) (MCF-7 cells [2]) | effect on cell viability (in words) (MCF-7 cells [2]) | IC50 (MCF-7 cells [1]; [4]) [µM] |
| --- | --- | --- | --- | --- |
| CC(=O)[O-].COc1ccc([O-])c(C=Nc2ccccc2N=Cc2cc(OC)ccc2[O-])c1.[Mn+3] [compound 14, 5,5′-Dimethoxysalphen Mn(III) acetate] | 55.9 µM | Y (14) |  |  |
| CC(=O)[O-].[Mn+3].[O-]c1ccc(O)cc1C=NCCN=Cc1cc(O)ccc1[O-] [compound 4, 5,5′-Dihydroxysalen Mn(III) acetate] | 43.1 µM | Y (4) | effective in inducing cell death |  |
| CC(=O)[O-].COc1cccc(C=Nc2cc3ccccc3cc2N=Cc2cccc(OC)c2[O-])c1[O-].[Mn+3] [compound 19, 3,3′-Dimethoxysalnaphen Mn(III) acetate] | 39.7 µM | Y (19) |  |  |
| CC(=O)[O-].COc1ccc([O-])c(C=NCCN=Cc2cc(OC)ccc2[O-])c1.[Mn+3] [compound 7, 5,5′-Dimethoxysalen Mn(III) acetate] | 16.1 µM | Y (7) |  |  |
| CC(=O)[O-].[Mn+3].[O-]c1cc(O)ccc1C=Nc1ccccc1N=Cc1ccc(O)cc1[O-] [compound 10, 4,4′-Dihydroxysalphen Mn(III) acetate] |  | N (10) | not active |  |
| N.N.[Cl][Pt][Cl] [cis-platin, Cis-diaminodichloro-platinum(II), reference compound] | ~20 µM |  |  |  |
| [Cl-].[Fe+3].[O-]c1c(O)cccc1C=Nc1ccccc1N=Cc1cccc(O)c1[O-] [compound 30, 3,3′-Dihydroxysalphen Fe(III) chloride] |  | Y (30) |  | 0.33 |
| CC(=O)[O-].[Mn+3].[O-]c1ccccc1C=Nc1cc2ccccc2cc1N=Cc1ccccc1[O-] [compound 15, Mn(III)-salnaphen acetate] | 15.5 µM and 15.6 µM | Y (15) | most effective on inducing cell death |  |
| CC(=O)[O-].[Mn+3].[O-]c1cc(O)ccc1C=NCCN=Cc1ccc(O)cc1[O-] [compound 3, 4,4′-Dihydroxysalen Mn(III) acetate] |  | N^b (3) | did not have any significant effect on cell viability; also recorded: not active |  |
| COc1cccc(C=Nc2cc3ccccc3cc2N=Cc2cccc(OC)c2[O-])c1[O-].[Cl-].[Fe+3] [compound 40, 3,3′-Dimethoxysalnaphen Fe(III) chloride] | 1.5 µM | Y (40 |  |  |
| CC(=O)[O-].[Mn+3].[O-]c1ccc(O)cc1C=Nc1ccccc1N=Cc1cc(O)ccc1[O-] [compound 11, 5,5′-Dihydroxysalphen Mn(III) acetate] | 45.6 µM | Y (11) | effective in inducing cell death |  |
| [Cl-].[Fe+3].[O-]c1ccccc1C=NCCCCN=Cc1ccccc1[O-] [compound 44, Bis(salicylidene)butanediamine Fe(III) chloride] |  |  | almost no cell killing activity |  |
| [Cl-].[Fe+3].[O-]c1ccc(O)cc1C=Nc1ccccc1N=Cc1cc(O)ccc1[O-] [compound 32, 5,5′-Dihydroxysalphen Fe(III) chloride] |  | N (32) | did not have any effects on cell viability |  |
| CC(=O)[O-].[Mn+3].[O-]c1ccccc1C=Nc1ccccc1N=Cc1ccccc1[O-] [compound 8, Mn(III)-salphen acetate] | 15 µM | Y (8) |  |  |
| COc1cccc(C=NCCN=Cc2cccc(OC)c2[O-])c1[O-].[Cl-].[Fe+3] [compound 26, 3,3′-Dimethoxysalen Fe(III) chloride] |  | N (26) | did not show any significant effect on cell viability |  |
| [Cl-].[Fe+3].[O-]c1ccccc1C=Nc1ccccc1N=Cc1ccccc1[O-] [compound 29, Fe(III)-salphen.chloride] | 1.25 µM | Y (29) |  |  |
| CC(=O)[O-].COc1ccc([O-])c(C=Nc2cc3ccccc3cc2N=Cc2cc(OC)ccc2[O-])c1.[Mn+3] [compound 21, 5,5′-Dimethoxysalnaphen Mn(III) acetate] | 19.3 µM | Y (21) |  |  |
| [Cl-].[Fe+3].[O-]c1ccc(O)cc1C=NCCN=Cc1cc(O)ccc1[O-] [compound 25, 5,5′-Dihydroxysalen Fe(III) chloride] |  | N (25) |  |  |
| COc1ccc(C=Nc2cc3ccccc3cc2N=Cc2ccc(OC)cc2[O-])c([O-])c1.[Cl-].[Fe+3] [compound 41, 4,4′-Dimethoxysalnaphen Fe(III) chloride] |  | Y (41) |  | 0.53 |
| [Cl-].[Fe+3].[O-]c1cc(O)ccc1C=Nc1ccccc1N=Cc1ccc(O)cc1[O-] [compound 31, 4,4′-Dihydroxysalphen Fe(III) chloride] |  | N (31) | did not have any effects on cell viability |  |
| COc1cccc(C=Nc2ccccc2N=Cc2cccc(OC)c2[O-])c1[O-].[Cl-].[Fe+3] [compound 33, 3,3′-Dimethoxysalphen Fe(III) chloride] | 4.15 µM | Y (33) |  |  |
| CC(=O)[O-].[Mn+3].[O-]c1c(O)cccc1C=NCCN=Cc1cccc(O)c1[O-] [compound 2, 3,3′-Dihydroxysalen Mn(III) acetate] | 37 µM | Y (2) |  |  |
| CC(=O)[O-].COc1ccc(C=Nc2cc3ccccc3cc2N=Cc2ccc(OC)cc2[O-])c([O-])c1.[Mn+3] [compound 20, 4,4′-Dimethoxysalnaphen Mn(III) acetate] | 20.4 µM and 20.5 µM | Y (20) |  |  |
| [Cl-].[Fe+3].[O-]c1c(O)cccc1C=NCCN=Cc1cccc(O)c1[O-] [compound 23, 3,3′-Dihydroxysalen Fe(III) chloride] |  | N (23) |  |  |
| [Cl-].[Fe+3].[O-]c1ccc(O)cc1C=Nc1cc2ccccc2cc1N=Cc1cc(O)ccc1[O-] [compound 39, 5,5′-Dihydroxysalnaphen Fe(III) chloride] |  | N (39) | did not have any effects on cell viability |  |
| [Cl-].[Fe+3].[O-]c1cc(O)ccc1C=Nc1cc2ccccc2cc1N=Cc1ccc(O)cc1[O-] [compound 38, 4,4′-Dihydroxysalnaphen Fe(III) chloride] |  | N (38) | did not have any effects on cell viability |  |
| Fe(III)-carboxysalphen] chloride [compound 45] |  |  | almost no cell killing activity |  |
| CC(=O)[O-].[Mn+3].[O-]c1ccc(O)cc1C=Nc1cc2ccccc2cc1N=Cc1cc(O)ccc1[O-] [compound 18, 5,5′-Dihydroxysalnaphen Mn(III) acetate] |  | N (18) | inactive |  |
| [Cl-].[Fe+3].[O-]c1ccccc1C=NCCCN=Cc1ccccc1[O-] [compound 43, Bis(salicylidene)propanediamine Fe(III) chloride] |  |  | almost no cell killing activity |  |
| [Cl-].[Fe+3].[O-]c1cc(O)ccc1C=NCCN=Cc1ccc(O)cc1[O-] [compound 24, 4,4′-Dihydroxysalen Fe(III) chloride] |  | N (24) |  |  |
